Measured values taken from article PMC7031302, “Design and synthesis of new energy restriction mimetic agents: Potent anti-tumor activities of hybrid motifs of aminothiazoles and coumarins” (Scientific Reports, 2020).

How the values were obtained:
Type in all cases: cell-based, Human
HT-29 = assay: Western blot analysis, HT-29; settings: for expression of LC3A-II and LC3B-II: HT-29 (CRC cell lines); for expression of LC3A-II and LC3B-II / p-mTOR and p-p70S6K levels: 72 h; for AMPK activation through phosphorylation / Akt phosphorylation / PARP cleavage: HT-29, 72 h
Procedure: Based on this, the energy restriction mediated anticancer activity of the new coumarin tagged aminothiazole derivatives was investigated. The expression levels of PARP, p-Akt, Akt, p-AMPK, AMPK, β-TrCP, LC3A/B-I, LC3A/B-II, caspase-3, cyclin D1, and Bcl-2 proteins were determined by Western blot analysis after 72 h treatment of HT-29 and HCT116 at different concentrations based on the IC50 values of each compound (Fig. 3A,B). […] Moreover, the treatment with 9b and 9f induced caspase 3/7 activation, which was detected by caspase 3/7 activity assay and confirmed by Western blot. The activation of caspases was significant in 9b in both cell lines and significant with 9f in HCT116 cells only and minimal in HT-29 cells (Fig. 3C,D). On the other hand, both 9b and 9f induced dose-dependent proteolytic processing of PARP. […] Besides, the protein expression level of the anti-apoptotic protein, Bcl-2, was reduced in HCT116 upon treatment with both compounds.
Following 72 h of treatment, cells were lysed and the extracted proteins were quantified using DC protein assay kit (Bio-Rad, Hercules, CA, USA) following the manufacturer’s instructions. Proteins were resolved on 8% or 12% SDS-poly-acrylamide gels, then transferred onto a nitrocellulose membrane using a semi-dry transfer cell. The membranes were blocked in TBS-T containing 5% non-fat milk for 1 h and incubated overnight at 4 °C overnight with indicated primary antibodies (Cell Signaling Technologies, Beverly, MA, USA) and then incubated with goat anti-mouse or anti-rabbit secondary antibody (Cell Signaling Technologies, Beverly, MA, USA) for 1 h at room temperature. Detection was done using chemiluminescence substrate (Bio-Rad, Hercules, CA, USA). β-actin (Cell Signaling Technologies, Beverly, MA, USA) was used as a loading control.
The blots were captured with ChemiDoc Imaging System (Bio-Rad, Hercules, CA, USA) and bands were visualized with the Image Lab v5.2.1 software (Bio-Rad, Hercules, CA, USA).

HCT116 = assay: Glucose uptake assay, HCT116; settings: HCT116, 16 h treatment, dose-dependent
Source text: (§1) According to previous studies, ERMAs inhibited glucose utilization in cancer cells[13],[19]. Therefore, we investigated glucose uptake (Fig. 5A) upon treatment with 9b and 9f in HT-29 and HCT116 cells at different concentrations based on the IC50 of each compound. […] This effect is known to result in the accumulation of reactive oxygen species (ROS) and could play a role in glucose deprivation-induced cytotoxicity and oxidative stress in cancer cells. […] The observed increase in ROS levels could lead to oxidative stress and extensive cell death in the absence of NADPH detoxification.
CRC cells (1 × 10^4) were seeded into a 96-well plate overnight. Cells were treated with test compounds or vehicle (negative control) glucose-free RPMI-1640 medium for 16 h; then, the cells were incubated with 2 mM 2-DG for 10 minutes. Eventually, glucose uptake of cells was measured using Glucose Uptake-Glo Assay (Promega, Madison, WI, USA) according to the manufacturer’s instructions. Luminescence was measured post 2 h of incubation at room temperature using Varioskan Flash multimode reader (Thermo Scientific). Glucose uptake was normalized to the total protein content in the samples using DC protein assay kit (Bio-Rad, Hercules, CA, USA).

CRC cells = assay: NADPH/NADP+ assay; settings: 48 h treatment
Source text: as §1
NADPH/NADP+ and ROS concentrations were measured using the NADP/NADPH-Glo Assay Kit (Promega, Madison, WI, USA) and ROS-Glo H2O2 Assay (Promega, Madison, WI, USA), respectively, based on the manufacturer instructions. In NADPH/NADP+ assay, CRC cells were seeded into a 96-well flat-bottomed plate and incubated overnight. On the following day, cells were treated with the testing compound or vehicle for 48 h. At the endpoint of treatment, the media were aspirated and replaced with 60 µl PBS/well, then cells were lysed in 60 µl base solution with 1% dodecyl (trimethyl) ammonium bromide (Sigma-Aldrich-St. Louis, MO, USA). […] Luminescence was measured after 30 minutes using Varioskan Flash multimode reader (Thermo Scientific). […] Luminescence was measured after 20 min incubation at room temperature.

Structure (SMILES) | expression of LC3A-II and LC3B-II (HT-29) | p-mTOR and p-p70S6K levels (HT-29; HT-29, 0.5 µM) | AMPK activation through phosphorylation (HT-29) | Akt phosphorylation (HT-29) | PARP cleavage (HT-29) | p-mTOR and p-p70S6K levels (HT-29; HT-29, higher concentrations) | glucose uptake (HCT116) | NADPH/NADP+ ratio (CRC cells)
Cc1cc(=O)oc2cc(Nc3nc(-c4ccc(Br)cc4)cs3)ccc12 [Compound 9b, 7-(4-(4-Bromophenyl)thiazol-2-ylamino)-4-methyl-2H-chromen-2-one] | induced the expression of LC3A-II and LC3B-II | initial increase | enhancement of AMPK activation | inhibition of Akt phosphorylation | induced PARP cleavage | decrease | inhibited significantly | significant decrease
Cc1cc(=O)oc2cc(Nc3nc(-c4cccc([N+](=O)[O-])c4)cs3)ccc12 [Compound 9f, 4-Methyl-7-(4-(3-Nitrophenyl)thiazol-2-ylamino)-2H-chromen-2-one] | induced the expression of LC3A-II and LC3B-II | – | enhancement of AMPK activation | inhibition of Akt phosphorylation | PARP cleavage only in HT-29 cells at the highest tested dose | decrease | inhibited significantly | significant decrease
